Test results from the supplement of paper PMC10307832.

Tests used:
Assay in all cases: relative viability (nuclei count vs DMSO), 5 days (fraction); higher = more cells survive
VE-821 + Bortezomib = compound: CS(=O)(=O)c1ccc(-c2cnc(N)c(C(=O)Nc3ccccc3)n2)cc1 [VE-821] + CC(C)C[C@H](NC(=O)[C@H](Cc1ccccc1)NC(=O)c1cnccn1)B(O)O [Bortezomib] (partner 0.002 µM)
How it was run: (§1)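 Lung cancer cell lines were seeded in 1536-well plates and dosed by pin tool the next day, with either a single drug or a fixed anchor-drug dose combined with five library-drug doses (not always all listed) spaced in √10 steps. Five days later, one step fixed the cells and stained their nuclei (final 0.05% Triton X-100, 1% formaldehyde, 1 ug/ml Hoechst), and nuclei were counted on 4× images. Relative viability is the nuclei count in treated wells divided by the count in vehicle wells, and each value is the median of duplicate plates.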

Vismodegib + Crizotinib = compound: CS(=O)(=O)c1ccc(C(=O)Nc2ccc(Cl)c(-c3ccccn3)c2)c(Cl)c1 [Vismodegib] + C[C@@H](Oc1cc(-c2cnn(C3CCNCC3)c2)cnc1N)c1c(Cl)ccc(F)c1Cl [Crizotinib] (partner 1 µM)
How it was run: as §1

Vismodegib + Olaparib = compound: CS(=O)(=O)c1ccc(C(=O)Nc2ccc(Cl)c(-c3ccccn3)c2)c(Cl)c1 [Vismodegib] + O=C(c1cc(Cc2n[nH]c(=O)c3ccccc23)ccc1F)N1CCN(C(=O)C2CC2)CC1 [Olaparib] (partner 8 µM)
How it was run: as §1

Vismodegib + Foretinib = compound: CS(=O)(=O)c1ccc(C(=O)Nc2ccc(Cl)c(-c3ccccn3)c2)c(Cl)c1 [Vismodegib] + COc1cc2c(Oc3ccc(NC(=O)C4(C(=O)Nc5ccc(F)cc5)CC4)cc3F)ccnc2cc1OCCCN1CCOCC1 [Foretinib] (partner 0.25 µM)
How it was run: as §1

Cell Line: UMC-11
- relative viability (VE-821 + Bortezomib; first compound 0.08 µM): 0.873
- relative viability (VE-821 + Bortezomib; first compound 0.253 µM): 0.707
- relative viability (VE-821 + Bortezomib; first compound 0.8 µM): 0.794
- relative viability (VE-821 + Bortezomib; first compound 2.53 µM): 0.789
- relative viability (VE-821 + Bortezomib; first compound 8 µM): 0.641
- relative viability (Vismodegib + Crizotinib; first compound 0.08 µM): 0.57
- relative viability (Vismodegib + Crizotinib; first compound 0.253 µM): 0.56
- relative viability (Vismodegib + Crizotinib; first compound 0.8 µM): 0.723
- relative viability (Vismodegib + Crizotinib; first compound 2.53 µM): 0.606
- relative viability (Vismodegib + Crizotinib; first compound 8 µM): 0.652
- relative viability (Vismodegib + Olaparib; first compound 0.08 µM): 0.416
- relative viability (Vismodegib + Olaparib; first compound 0.253 µM): 0.361
- relative viability (Vismodegib + Olaparib; first compound 0.8 µM): 0.376
- relative viability (Vismodegib + Olaparib; first compound 2.53 µM): 0.473
- relative viability (Vismodegib + Olaparib; first compound 8 µM): 0.373
- relative viability (Vismodegib + Foretinib; first compound 0.08 µM): 0.996
- relative viability (Vismodegib + Foretinib; first compound 0.253 µM): 0.961
- relative viability (Vismodegib + Foretinib; first compound 0.8 µM): 1.07
- relative viability (Vismodegib + Foretinib; first compound 2.53 µM): 0.923
- relative viability (Vismodegib + Foretinib; first compound 8 µM): 1.04
